What was measured:
Experiment in all cases: biochemical
Parameters in all cases: KINOMEscan scanMAX active site-directed competition binding assay, percent of control, 468 kinases
Conditions in all cases: competition binding, percent of control
AAK1 = AAK1 (Homo sapiens, UniProt Q2M2I8)
Summary of the method: (§1)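 KINOMEscan active site-directed competition binding assay against 468 human kinases with 100 μM S-carvone. Binding expressed as % of control, with 35% of control as the inhibition threshold.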

BRSK1 = BRSK1 (Homo sapiens, UniProt Q8TDC3)
Summary of the method: as §1

CAMK1 = CAMK1 (Homo sapiens, UniProt Q14012)
Summary of the method: as §1

CAMK1D = CAMK1D (Homo sapiens, UniProt Q8IU85)
Summary of the method: as §1

CAMK1G = CAMK1G (Homo sapiens, UniProt Q96NX5)
Summary of the method: as §1

CAMK2A = CAMK2A (Homo sapiens, UniProt Q9UQM7)
Summary of the method: as §1

CDK5 = CDK5 (Homo sapiens, UniProt Q00535)
Summary of the method: as §1

DAPK3 = DAPK3 (Homo sapiens, UniProt O43293)
Summary of the method: as §1

EPHA8 = EPHA8 (Homo sapiens, UniProt P29322)
Summary of the method: as §1

ERK5 = target: T1, ERK5 (Homo sapiens, UniProt Q13164)
T1 construct: gene MAPK7
Summary of the method: as §1

LATS1 = LATS1 (Homo sapiens, UniProt O95835)
Summary of the method: as §1

MAK = MAK (Homo sapiens, UniProt P20794)
Summary of the method: as §1

MARK4 = MARK4 (Homo sapiens, UniProt Q96L34)
Summary of the method: as §1

MLCK = target: T2, MLCK (Homo sapiens, UniProt Q32MK0)
T2 construct: gene MYLK3
Summary of the method: as §1

NEK5 = NEK5 (Homo sapiens, UniProt Q6P3R8)
Summary of the method: as §1

PFTK1 = target: T3, PFTK1 (Homo sapiens, UniProt O94921)
T3 construct: gene CDK14
Summary of the method: as §1

PIK3CA(H1047L) = PIK3CA(H1047L) (Homo sapiens, UniProt P42336, H1047L)
Summary of the method: as §1

PIP5K1C = PIP5K1C (Homo sapiens, UniProt O60331)
Summary of the method: as §1

PRKCD = PRKCD (Homo sapiens, UniProt Q05655)
Summary of the method: as §1

STK35 = STK35 (Homo sapiens, UniProt Q8TDR2)
Summary of the method: as §1

TGFBR1 = TGFBR1 (Homo sapiens, UniProt P36897)
Summary of the method: as §1

p38-delta = target: T4, p38-delta (Homo sapiens, UniProt O15264)
T4 construct: gene MAPK13
Summary of the method: as §1

DAPK3, sequence (O43293 whole entry): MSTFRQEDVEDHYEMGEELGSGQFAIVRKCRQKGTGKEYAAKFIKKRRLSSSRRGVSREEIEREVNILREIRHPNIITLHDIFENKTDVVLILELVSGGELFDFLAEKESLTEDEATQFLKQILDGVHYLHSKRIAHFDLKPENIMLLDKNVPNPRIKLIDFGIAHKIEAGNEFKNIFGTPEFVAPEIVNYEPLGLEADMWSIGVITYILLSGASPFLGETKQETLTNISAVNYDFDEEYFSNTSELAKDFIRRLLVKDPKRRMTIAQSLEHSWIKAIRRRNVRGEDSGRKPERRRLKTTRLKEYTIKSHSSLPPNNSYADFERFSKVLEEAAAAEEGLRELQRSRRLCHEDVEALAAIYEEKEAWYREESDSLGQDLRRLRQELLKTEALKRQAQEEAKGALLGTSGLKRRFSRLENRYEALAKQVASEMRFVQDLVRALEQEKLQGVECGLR
CAMK1D, sequence (Q8IU85 whole entry): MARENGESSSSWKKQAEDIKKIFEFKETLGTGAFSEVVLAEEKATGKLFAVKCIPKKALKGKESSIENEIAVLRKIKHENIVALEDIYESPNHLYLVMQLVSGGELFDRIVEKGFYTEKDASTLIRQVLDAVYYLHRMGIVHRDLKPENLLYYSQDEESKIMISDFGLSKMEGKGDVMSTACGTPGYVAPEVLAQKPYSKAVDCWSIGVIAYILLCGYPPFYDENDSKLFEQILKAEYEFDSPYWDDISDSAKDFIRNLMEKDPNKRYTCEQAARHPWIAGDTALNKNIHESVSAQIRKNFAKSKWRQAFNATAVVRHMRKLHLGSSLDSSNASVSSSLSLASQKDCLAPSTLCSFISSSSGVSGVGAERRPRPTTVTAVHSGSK
LATS1, sequence (O95835 whole entry): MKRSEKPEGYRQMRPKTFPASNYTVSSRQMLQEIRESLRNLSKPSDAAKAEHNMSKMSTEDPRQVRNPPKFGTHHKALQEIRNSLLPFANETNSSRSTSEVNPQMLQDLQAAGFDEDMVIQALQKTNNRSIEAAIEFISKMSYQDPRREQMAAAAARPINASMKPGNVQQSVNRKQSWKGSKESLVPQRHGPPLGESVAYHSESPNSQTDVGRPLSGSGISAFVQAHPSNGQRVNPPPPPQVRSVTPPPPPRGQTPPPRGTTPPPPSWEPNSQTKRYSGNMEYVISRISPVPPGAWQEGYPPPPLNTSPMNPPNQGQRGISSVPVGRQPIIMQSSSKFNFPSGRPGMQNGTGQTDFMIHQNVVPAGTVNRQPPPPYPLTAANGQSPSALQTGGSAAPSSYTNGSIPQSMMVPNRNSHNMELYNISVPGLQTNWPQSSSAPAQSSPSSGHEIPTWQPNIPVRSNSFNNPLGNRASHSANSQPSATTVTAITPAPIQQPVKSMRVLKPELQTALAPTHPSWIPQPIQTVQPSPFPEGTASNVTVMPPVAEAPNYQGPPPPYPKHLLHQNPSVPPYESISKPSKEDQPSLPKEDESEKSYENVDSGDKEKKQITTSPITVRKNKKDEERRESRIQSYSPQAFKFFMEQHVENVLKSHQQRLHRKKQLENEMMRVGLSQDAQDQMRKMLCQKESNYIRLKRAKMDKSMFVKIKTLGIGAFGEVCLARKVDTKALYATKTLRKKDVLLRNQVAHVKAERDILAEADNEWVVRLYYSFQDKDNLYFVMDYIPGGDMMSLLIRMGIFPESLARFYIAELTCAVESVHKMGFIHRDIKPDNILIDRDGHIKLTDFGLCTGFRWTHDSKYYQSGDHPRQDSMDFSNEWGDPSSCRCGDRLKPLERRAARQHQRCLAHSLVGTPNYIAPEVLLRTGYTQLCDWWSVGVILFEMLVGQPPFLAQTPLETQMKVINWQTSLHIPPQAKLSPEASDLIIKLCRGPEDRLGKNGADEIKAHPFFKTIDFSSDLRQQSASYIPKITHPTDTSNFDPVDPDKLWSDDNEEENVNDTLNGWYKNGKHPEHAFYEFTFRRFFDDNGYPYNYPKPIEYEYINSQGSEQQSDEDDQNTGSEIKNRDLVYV
T4 sequence (O15264 whole entry): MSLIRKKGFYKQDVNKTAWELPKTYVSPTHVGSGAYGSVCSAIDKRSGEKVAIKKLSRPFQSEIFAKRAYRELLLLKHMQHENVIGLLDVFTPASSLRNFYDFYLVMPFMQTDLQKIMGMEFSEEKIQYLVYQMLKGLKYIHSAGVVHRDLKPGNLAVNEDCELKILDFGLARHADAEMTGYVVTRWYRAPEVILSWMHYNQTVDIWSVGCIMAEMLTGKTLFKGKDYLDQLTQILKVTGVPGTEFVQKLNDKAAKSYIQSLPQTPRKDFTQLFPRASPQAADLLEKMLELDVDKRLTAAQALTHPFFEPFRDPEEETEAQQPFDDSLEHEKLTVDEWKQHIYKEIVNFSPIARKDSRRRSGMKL
T3 sequence (O94921 whole entry): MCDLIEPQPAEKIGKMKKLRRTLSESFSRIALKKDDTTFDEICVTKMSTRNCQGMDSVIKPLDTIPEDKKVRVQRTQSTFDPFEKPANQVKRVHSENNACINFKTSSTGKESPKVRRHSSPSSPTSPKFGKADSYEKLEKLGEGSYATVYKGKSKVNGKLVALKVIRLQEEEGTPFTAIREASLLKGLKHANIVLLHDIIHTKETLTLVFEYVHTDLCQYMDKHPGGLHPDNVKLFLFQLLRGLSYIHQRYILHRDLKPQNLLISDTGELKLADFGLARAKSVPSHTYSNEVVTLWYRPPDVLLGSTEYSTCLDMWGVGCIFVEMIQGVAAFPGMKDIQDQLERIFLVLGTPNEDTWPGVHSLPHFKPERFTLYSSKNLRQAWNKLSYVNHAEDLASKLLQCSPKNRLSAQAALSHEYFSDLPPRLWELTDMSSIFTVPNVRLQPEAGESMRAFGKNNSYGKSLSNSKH
PIP5K1C, sequence (O60331 whole entry): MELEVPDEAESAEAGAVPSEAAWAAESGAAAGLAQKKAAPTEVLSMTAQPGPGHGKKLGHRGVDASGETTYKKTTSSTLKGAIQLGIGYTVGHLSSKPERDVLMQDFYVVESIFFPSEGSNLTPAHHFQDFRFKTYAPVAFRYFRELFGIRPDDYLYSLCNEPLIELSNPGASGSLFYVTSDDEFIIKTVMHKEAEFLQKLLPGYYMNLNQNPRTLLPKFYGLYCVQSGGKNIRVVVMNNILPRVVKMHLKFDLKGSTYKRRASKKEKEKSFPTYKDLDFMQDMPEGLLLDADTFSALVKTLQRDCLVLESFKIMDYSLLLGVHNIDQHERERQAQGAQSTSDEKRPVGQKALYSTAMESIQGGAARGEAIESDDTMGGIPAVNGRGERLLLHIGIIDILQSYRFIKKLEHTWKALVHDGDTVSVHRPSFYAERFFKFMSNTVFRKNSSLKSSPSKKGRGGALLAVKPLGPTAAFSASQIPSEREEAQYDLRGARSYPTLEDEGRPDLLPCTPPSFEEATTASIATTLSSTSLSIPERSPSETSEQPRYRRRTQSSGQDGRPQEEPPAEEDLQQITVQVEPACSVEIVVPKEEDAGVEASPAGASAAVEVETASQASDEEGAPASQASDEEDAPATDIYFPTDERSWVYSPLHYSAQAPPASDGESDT
BRSK1, sequence (Q8TDC3 whole entry): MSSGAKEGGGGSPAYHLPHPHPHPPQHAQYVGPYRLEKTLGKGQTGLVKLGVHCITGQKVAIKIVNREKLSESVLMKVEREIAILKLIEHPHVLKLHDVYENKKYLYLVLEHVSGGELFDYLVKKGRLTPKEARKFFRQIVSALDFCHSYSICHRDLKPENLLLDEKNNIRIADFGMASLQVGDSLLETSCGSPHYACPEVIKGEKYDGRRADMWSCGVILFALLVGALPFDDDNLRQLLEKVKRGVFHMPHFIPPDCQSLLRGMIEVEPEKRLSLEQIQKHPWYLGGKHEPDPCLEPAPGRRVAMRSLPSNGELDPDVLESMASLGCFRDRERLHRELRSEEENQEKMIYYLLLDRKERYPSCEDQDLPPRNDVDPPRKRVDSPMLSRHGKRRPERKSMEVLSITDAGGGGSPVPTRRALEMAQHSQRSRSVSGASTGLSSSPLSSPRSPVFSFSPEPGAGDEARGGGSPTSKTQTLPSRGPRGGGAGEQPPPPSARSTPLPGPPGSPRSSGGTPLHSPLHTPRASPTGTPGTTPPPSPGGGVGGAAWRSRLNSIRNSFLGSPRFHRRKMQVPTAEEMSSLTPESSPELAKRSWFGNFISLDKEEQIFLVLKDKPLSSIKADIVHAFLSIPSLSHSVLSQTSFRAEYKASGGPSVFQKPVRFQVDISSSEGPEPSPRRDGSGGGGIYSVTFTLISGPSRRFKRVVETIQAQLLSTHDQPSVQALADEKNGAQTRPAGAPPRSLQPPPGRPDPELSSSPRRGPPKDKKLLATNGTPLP
CAMK1G, sequence (Q96NX5 whole entry): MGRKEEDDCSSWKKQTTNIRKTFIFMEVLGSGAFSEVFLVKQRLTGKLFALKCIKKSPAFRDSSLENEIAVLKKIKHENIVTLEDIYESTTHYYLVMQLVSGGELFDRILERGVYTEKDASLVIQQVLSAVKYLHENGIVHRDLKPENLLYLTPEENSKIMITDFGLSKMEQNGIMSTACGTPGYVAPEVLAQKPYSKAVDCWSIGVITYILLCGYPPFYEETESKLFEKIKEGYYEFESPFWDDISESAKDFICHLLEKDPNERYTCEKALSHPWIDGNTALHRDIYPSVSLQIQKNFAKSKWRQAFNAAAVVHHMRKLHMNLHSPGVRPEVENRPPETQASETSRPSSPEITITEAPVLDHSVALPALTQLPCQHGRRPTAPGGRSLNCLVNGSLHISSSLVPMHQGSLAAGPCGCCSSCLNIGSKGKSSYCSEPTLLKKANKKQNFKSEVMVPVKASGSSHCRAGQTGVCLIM
CDK5, sequence (Q00535 whole entry): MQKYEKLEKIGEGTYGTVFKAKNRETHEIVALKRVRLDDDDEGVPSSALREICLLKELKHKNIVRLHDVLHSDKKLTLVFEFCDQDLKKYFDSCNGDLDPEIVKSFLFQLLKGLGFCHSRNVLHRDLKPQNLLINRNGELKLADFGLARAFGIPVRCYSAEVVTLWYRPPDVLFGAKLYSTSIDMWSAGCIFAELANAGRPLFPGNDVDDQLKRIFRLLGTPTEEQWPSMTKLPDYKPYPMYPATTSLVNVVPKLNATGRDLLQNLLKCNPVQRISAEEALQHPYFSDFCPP

remaining binding at 100 µM (AAK1): 77%
remaining binding at 100 µM (BRSK1): 100%
remaining binding at 100 µM (CAMK1): 75%
remaining binding at 100 µM (CAMK1D): 83%
remaining binding at 100 µM (CAMK1G): 89%
remaining binding at 100 µM (CAMK2A): 79%
remaining binding at 100 µM (CDK5): 61%
remaining binding at 100 µM (DAPK3): 84%
remaining binding at 100 µM (EPHA8): 91%
remaining binding at 100 µM (ERK5): 93%
remaining binding at 100 µM (LATS1): 91%
remaining binding at 100 µM (MAK): 73%
remaining binding at 100 µM (MARK4): 73%
remaining binding at 100 µM (MLCK): 98%
remaining binding at 100 µM (NEK5): 93%
remaining binding at 100 µM (PFTK1): 93%
remaining binding at 100 µM (PIK3CA(H1047L)): 74%
remaining binding at 100 µM (PIP5K1C): 100%
remaining binding at 100 µM (PRKCD): 90%
remaining binding at 100 µM (STK35): 92%
remaining binding at 100 µM (TGFBR1): 100%
remaining binding at 100 µM (p38-delta): 57%
Structure (SMILES): C=C(C)[C@H]1CC=C(C)C(=O)C1 [S-carvone]

Source: paper PMC10174618, “Monoterpenoid aryl hydrocarbon receptor allosteric antagonists protect against ultraviolet skin damage in female mice” (Nature Communications, 2023)
